# Assay results as given in patent US20250051375A1, “ANTI-HIV COMPOUNDS” (Gilead Sciences, Inc., priority 2023, published 2025).
# Like-named read-outs stand apart in the source and are kept apart here.
# What was measured:
# physchem = settings: 23 °C, pH 6.5, fassif, thermodynamic from solid; for solubility: FaSSIF (pH 6.5) solubility, FaSSIF pH 6.5, dose 5 mg/mL, 2-hour incubation, ambient temperature
# Summary of the method: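 Concentration measured by HPLC-UV after solid compound was dosed at 5 mg/mL into pH 6.5 fasted-state simulated intestinal fluid containing taurocholate and lecithin (4:1 molar) and vortexed.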
# PBS Stability Assay = type: physicochemical; settings: phosphate buffered saline pH 7.4; for half-life at 2 μM: buffer, pH 7.4, 2 μM, read-out: PBS T½; for PBS T½: 2 μM
# Summary of the method: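 Test compound at 2 μM final was incubated in PBS, pH 7.4, and sampled at 0, 10, 20, 30, 60 and 120 min into acetonitrile/1% formic acid quench with labetalol internal standard. Remaining compound was quantified by LC-MS peak-area ratio, and half-life came from a first-order exponential fit.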
# [1] = target: bovine intestinal alkaline phosphatase (Bos taurus (Bovine), UniProt P19111); assay: BiALP: conversion by bovine intestinal alkaline phosphatase; type: in vitro ADME; settings: 2 μM substrate, 100 ng/mL iALP, Tris pH 7.8, 37° C., 60 minutes; for [Intermediate A] or [Amprenavir]: parent formed
# bovine intestinal alkaline phosphatase, sequence (P19111 20-506): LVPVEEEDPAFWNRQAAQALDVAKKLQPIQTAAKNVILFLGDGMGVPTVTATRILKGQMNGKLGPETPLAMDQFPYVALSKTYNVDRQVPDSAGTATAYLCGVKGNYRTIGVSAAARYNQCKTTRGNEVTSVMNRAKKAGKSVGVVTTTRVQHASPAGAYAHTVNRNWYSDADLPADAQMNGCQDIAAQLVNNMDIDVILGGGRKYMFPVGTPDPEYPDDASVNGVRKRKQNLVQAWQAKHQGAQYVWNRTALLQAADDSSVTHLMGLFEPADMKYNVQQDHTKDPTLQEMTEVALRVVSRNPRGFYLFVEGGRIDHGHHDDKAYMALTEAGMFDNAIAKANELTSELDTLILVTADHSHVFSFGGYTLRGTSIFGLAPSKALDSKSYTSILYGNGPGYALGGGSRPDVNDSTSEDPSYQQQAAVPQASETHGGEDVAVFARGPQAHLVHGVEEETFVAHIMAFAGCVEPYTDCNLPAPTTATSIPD
# Summary of the method: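 Compounds at 2 μM final were incubated 60 min at 37° C in 0.1 M Tris-HCl pH 7.8 with 1 mM MgCl2 and 1 mM ZnCl2, with or without 100 ng/mL iALP (0.01 units/mL). Samples were quenched with acetonitrile/formic acid containing labetalol. Conversion was quantified by LC-MS peak area ratios against a 2 μM product standard.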
# HIV-1 IIIB strain = assay: MT-4 HIV Wild Type Virus Infection Assay (IIIB Virus); type: cell-based; settings: Human immunodeficiency virus 1, IIIB, MT4, 120 h, MT-4 cells acutely infected with HIV-1 IIIB, 5 day incubation, Cell-titer glo
# Summary of the method: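 MT-4 cells at 2×10^6 cells/ml in RPMI/10% FBS were acutely infected with HIV-1 IIIB for 1 h at 37° C, diluted 25× and added to serially diluted compounds. After 5 days at 37° C, viability read by CellTiter-Glo luminescence; EC50 from dose-response curves.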
# [2] = Intestinal S9 Assay (dog GI S9); type: in vitro ADME; settings: 1.0 mg/mL S9 protein; for half-life at 2 μM: dog, TRIS pH 7.4, read-out: Dog GI S9 T½
# Summary of the method: (§1)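 Pooled dog or human intestinal S9 at 1.0 mg/mL protein in TRIS buffer pH 7.4 with ZnCl2 and MgCl2; compound at 2 μM, sampled 0–120 min and quenched. Remaining parent by LC-MS peak area ratio; half-life from first-order exponential decline fit.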
# [3] = Intestinal S9 Assay (human GI S9); type: in vitro ADME; settings: 1.0 mg/mL S9 protein; for half-life at 2 μM: human, TRIS pH 7.4, read-out: Human GI S9 T½
# Summary of the method: as §1
Structure (SMILES),solubility (physchem) [µg/mL],half-life at 2 μM (PBS Stability Assay) [h],[Compound] [1] [nM],EC50 (HIV-1 IIIB strain; read-out: EC50) [nM],half-life at 2 μM [2] [h],half-life at 2 μM [3] [h],solubility at 2 h (physchem) [µg/mL],EC50 (HIV-1 IIIB strain) [nM],PBS T½ (PBS Stability Assay) [h],biALP Intermediate A or [Amprenavir] (% of total) [1],[Intermediate A] or [Amprenavir] [1] [nM],"Dog GI S9 [Intermediate A] ([2]; 2 μM, TRIS pH 7.4) [nM]","Dog GI S9 [Intermediate A] % ([2]; 2 μM, TRIS pH 7.4) [%]","Human GI S9 [Intermediate A] ([3]; 2 μM, TRIS pH 7.4) [nM]","Human GI S9 [Intermediate A] % ([3]; 2 μM, TRIS pH 7.4) [%]","Human GI S9 T½ ([3]; 2 μM, TRIS pH 7.4) [h]"
"COC(=O)N[C@H](C(=O)N[C@@H](Cc1ccc(C#Cc2cnc(N3CC4CCC(C3)N4C3COC3)nc2)cc1)[C@H](CN(Cc1c(F)cc(-c2ccn(C(F)F)n2)cc1F)NC(=O)[C@@H](NC(=O)OC)C(C)(C)C(F)(F)F)OC(=O)CC(C)(C)c1c(CC(=O)O)cccc1OP(=O)(O)O)C(C)(C)C(F)(F)F [Example 5, 2-(2-((5S,10S)-8-(4-(1-(difluoromethyl)-1H-pyrazol-3-yl)-2,6-difluorobenzyl)-14-methyl-10-((1S)-2-(4-((2-(8-(oxetan-3-yl)-3,8-diazabicyclo[3.2.1]octan-3-yl)pyrimidin-5-yl)ethynyl)phenyl)-1-((S)-4,4,4-trifluoro-2-((methoxycarbonyl)amino)-3,3-dimethylbutanamido)ethyl)-3,6,12-trioxo-5-(1,1,1-trifluoro-2-methylpropan-2-yl)-2,11-dioxa-4,7,8-triazapentadecan-14-yl)-3-(phosphonooxy)phenyl)acetic acid]",< 1000,7.62,1638.1,73.7,0.74,11.6,–,–,–,–,–,–,–,–,–,–
COC(=O)N[C@H](C(=O)N[C@@H](Cc1ccc(C#Cc2ccc(N3CC4CCC(C3)N4C3COC3)nc2)cc1)[C@H](CN(Cc1c(F)cc(-c2ccn(C(F)F)n2)cc1F)NC(=O)[C@@H](NC(=O)OC)C(C)(C)C(F)(F)F)OC(=O)CC(C)(C)c1c(CC(=O)Nc2cccc(C(=O)OO)c2)cc(C)cc1CP(=O)(O)O)C(C)(C)C(F)(F)F [Example 15],–,4.8,2690.4,–,3.95,8.95,< 1000,162,–,–,–,–,–,–,–,–
COC(=O)N[C@H](C(=O)N[C@@H](Cc1ccc(C#Cc2cnc(N3CC4CCC(C3)N4C3COC3)nc2)cc1)[C@H](CN(Cc1c(F)cc(-c2ccn(C(F)F)n2)cc1F)NC(=O)[C@@H](NC(=O)OC)C(C)(C)C(F)(F)F)OC(=O)CC(C)(C)c1c(CC(=O)N2CC[C@H](C(=O)O)C2)cc(C)cc1OP(=O)(O)O)C(C)(C)C(F)(F)F [Example 76],–,4.89,1777,–,4.41,6.16,2230,333,–,–,–,–,–,–,–,–
COC(=O)N[C@H](C(=O)N[C@@H](Cc1ccc(C#Cc2cnc(N3CC4CCC(C3)N4C3COC3)nc2)cc1)[C@H](CN(Cc1c(F)cc(-c2ccn(C(F)F)n2)cc1F)NC(=O)[C@@H](NC(=O)OC)C(C)(C)C(F)(F)F)OC(=O)CC(C)(C)c1c(CC(=O)NCCS(=O)(=O)O)cc(C)cc1OP(=O)(O)O)C(C)(C)C(F)(F)F [Example 24],–,–,1717.9,–,2.24,3.78,4660,130,13.2,–,–,–,–,–,–,–
"COC(=O)N[C@H](C(=O)N[C@@H](Cc1ccc(C#Cc2cnc(N3CC4CCC(C3)N4C3COC3)nc2)cc1)[C@H](CN(Cc1c(F)cc(-c2ccn(C(F)F)n2)cc1F)NC(=O)[C@@H](NC(=O)OC)C(C)(C)C(F)(F)F)OC(=O)CC(C)(C)c1c(CC(=O)NCC(=O)NS(C)(=O)=O)cc(C)cc1OP(=O)(O)O)C(C)(C)C(F)(F)F [Example 27, (5S,10S,11S,14S)-8-(4-(1-(difluoromethyl)-1H-pyrazol-3-yl)-2,6-difluorobenzyl)-11-(4-((2-(8-(oxetan-3-yl)-3,8-diazabicyclo[3.2.1]octan-3-yl)pyrimidin-5-yl)ethynyl)benzyl)-3,6,13,16-tetraoxo-5,14-bis(1,1,1-trifluoro-2-methylpropan-2-yl)-2,17-dioxa-4,7,8,12,15-pentaazaoctadecan-10-yl 3-methyl-3-(4-methyl-2-(2-((2-(methylsulfonamido)-2-oxoethyl)amino)-2-oxoethyl)-6-(phosphonooxy)phenyl)butanoate]",–,6.41,2082.4,–,1.82,2.46,4420,173,–,–,–,–,–,–,–,–
COC(=O)N[C@H](C(=O)N[C@@H](Cc1ccc(C#Cc2cnc(N3CC4CCC(C3)N4C3COC3)nc2)cc1)[C@H](CN(Cc1c(F)cc(-c2ccn(C(F)F)n2)cc1F)NC(=O)[C@@H](NC(=O)OC)C(C)(C)C(F)(F)F)OC(=O)CC(C)(C)c1c(CC(=O)O)cc(C)cc1OP(=O)(O)O)C(C)(C)C(F)(F)F [Example 4],272,9.43,1627.4,20.7,1.69,7.74,–,–,–,–,–,–,–,–,–,–
COC(=O)N[C@H](C(=O)N[C@@H](Cc1ccc(C#Cc2cnc(N3CC4CCC(C3)N4C3COC3)nc2)cc1)[C@H](CN(Cc1c(F)cc(-c2ccn(C(F)F)n2)cc1F)NC(=O)[C@@H](NC(=O)OC)C(C)(C)C(F)(F)F)OC(=O)CC(C)(C)c1c(CC(=O)N[C@@H](CCC(=O)O)C(=O)O)cccc1OP(=O)(O)O)C(C)(C)C(F)(F)F [Example 6],–,10.9,1304.1,–,0.393,2.57,3710,20.7,–,19 % of total,306.6,1236,93.8,363.6,28.2,–
COC(=O)N[C@H](C(=O)N[C@@H](Cc1ccc(C#Cc2cnc(N3CC4CCC(C3)N4C3COC3)nc2)cc1)[C@H](CN(Cc1c(F)cc(-c2ccn(C(F)F)n2)cc1F)NC(=O)[C@@H](NC(=O)OC)C(C)(C)C(F)(F)F)OC(=O)CC(C)(C)c1c(CC(=O)NC23CC(C(=O)O)(C2)C3)cc(C)cc1OP(=O)(O)O)C(C)(C)C(F)(F)F [Example 38],–,5.16,1920.9,–,6.52,7.82,3500,305,–,–,–,–,–,–,–,–
"COC(=O)N[C@H](C(=O)N[C@@H](Cc1ccc(C#Cc2cnc(N3CC4CCC(C3)N4C3COC3)nc2)cc1)[C@H](CN(Cc1c(F)cc(-c2ccn(C(F)F)n2)cc1F)NC(=O)[C@@H](NC(=O)OC)C(C)(C)C(F)(F)F)OC(=O)CC(C)(C)c1c(CC(=O)NC/C(N)=N/O)cc(C)cc1OP(=O)(O)O)C(C)(C)C(F)(F)F [Example 28, (5S,10S,11S,14S)-8-(4-(1-(difluoromethyl)-1H-pyrazol-3-yl)-2,6-difluorobenzyl)-11-(4-((2-(8-(oxetan-3-yl)-3,8-diazabicyclo[3.2.1]octan-3-yl)pyrimidin-5-yl)ethynyl)benzyl)-3,6,13,16-tetraoxo-5,14-bis(1,1,1-trifluoro-2-methylpropan-2-yl)-2,17-dioxa-4,7,8,12,15-pentaazaoctadecan-10-yl 3-(2-(2-(((Z)-2-amino-2-(hydroxyimino)ethyl)amino)-2-oxoethyl)-4-methyl-6-(phosphonooxy)phenyl)-3-methylbutanoate]",–,–,2478.7,–,11.4,–,15,307,13.2,–,–,–,–,–,–,13.2
COC(=O)N[C@H](C(=O)N[C@@H](Cc1ccc(C#Cc2cnc(N3CC4CCC(C3)N4C3COC3)nc2)cc1)[C@H](CN(Cc1c(F)cc(-c2ccn(C(F)F)n2)cc1F)NC(=O)[C@@H](NC(=O)OC)C(C)(C)C(F)(F)F)OC(=O)CC(C)(C)c1c(CC(=O)N2CC[C@@H]2C(=O)O)cc(C)cc1OP(=O)(O)O)C(C)(C)C(F)(F)F [Example 9],–,10.4,2004.9,–,1.14,8.93,2300,241,–,1.8 % of total,36.5,–,–,–,–,–
